The target in this assay is T1, Recombinant human liver GK (Homo sapiens, UniProt P35557).
T1 construct: made in house; host or cells: E. coli
T1 sequence (P35557 1-466 isoform P35557-2): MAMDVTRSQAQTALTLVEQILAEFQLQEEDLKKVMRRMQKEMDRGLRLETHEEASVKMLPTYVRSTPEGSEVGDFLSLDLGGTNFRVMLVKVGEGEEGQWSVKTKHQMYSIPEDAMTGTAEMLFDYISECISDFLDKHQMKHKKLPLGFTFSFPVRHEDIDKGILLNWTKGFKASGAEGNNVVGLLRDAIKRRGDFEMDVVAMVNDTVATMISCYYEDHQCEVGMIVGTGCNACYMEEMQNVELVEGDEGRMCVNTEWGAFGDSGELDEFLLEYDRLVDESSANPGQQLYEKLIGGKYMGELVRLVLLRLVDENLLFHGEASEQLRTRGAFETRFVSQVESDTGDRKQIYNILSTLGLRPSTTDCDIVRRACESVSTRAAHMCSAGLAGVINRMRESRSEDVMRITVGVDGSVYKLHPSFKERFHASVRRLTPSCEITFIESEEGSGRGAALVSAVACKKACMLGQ
The experiment in a line: Glucokinase activating action (G6PDH-coupled thio-NADH absorbance assay). The assay is classed as biochemical. The conditions noted are these: GK activating ability, final glucose concentration 2.5 mM, 30° C.; for Emax: OD of DMSO control defined as 100%. The method, then:
Glucokinase activating ability was measured using the compound of the present invention.
Measurement of an excellent glucokinase activating action of the compounds represented by the aforementioned formula (I) is able to be carried out by a method mentioned in literatures such as Diabetes, vol. 45, pages 1671 to 1677 (1996) or a method similar thereto.
Recombinant human liver GK used in this assay was expressed in E. coli as FLAG fusion protein and purified by ANTIFLAG M2 AFFINITY GEL (Sigma).
The assay was conducted at 30° C. using a flat-bottom 96-well plate. An assay buffer (25 mM Hepes Buffer: pH=7.2; 2 mM MgCl2, 1 mM ATP, 0.5 mM TNAD and 1 mM dithiothreitol) (69 μl) was dispensed and 1 μl of a solution of a compound in DMSO or DMSO (as a control) was added. After that, 20 μl of an enzyme mixture (FLAG-GK, 20 U/ml G6PDH) cooled in ice was added, then 10 μl of 25 mM glucose which is a substrate was added and the reaction was started (final glucose concentration=2.5 mM).
After starting the reaction, an increase in absorbance at 405 nm was measured for 10 minutes every 30 seconds and the compound was evaluated using the increase during the first 5 minutes. FLAG-GK was added in such a manner that an increase in absorbance after 5 minutes in the presence of 1% of DMSO became between 0.05 and 0.1.
OD value in the case of DMSO control was defined as 100% and OD values in various concentrations of the compound to be evaluated were measured. From the OD values in various concentrations, Emax (%) and EC50 (μM) were calculated and used as indexes of GK activating ability of the compound.

As to `c1cnc2sc(Nc3ncnc4ccc(Sc5nnc[nH]5)cc34)nc2c1` [Example 1, [6-(4H-[1,2,4]Triazol-3-ylsulfanyl)-quinazolin-4-yl]-thiazolo[5,4-b]pyridin-2-yl-amine], the Emax (usually the maximal effect, on the per cent scale that the assay sets) was 1000% and the EC50 (in general, the concentration that produces a half-maximal response) stood at 180 nM.
In the same order, the values of `FCC(CF)Oc1ccc2ncnc(Nc3nc4cccnc4s3)c2c1` [Example 22, [6-(2-Fluoro-1-fluoromethyl-ethoxy)-quinazolin-4-yl]-thiazolo[5,4-b]pyridin-2-yl-amine] are 860% and 80 nM.
Regarding `c1cnc2sc(Nc3ncnc4ccc(Sc5nnc[nH]5)nc34)nc2c1` [Example 31], the EC50 was 90 nM.

These data come from patent US7687502B2, “Substituted quinazoline or pyridopyrimidine derivative” (Banyu Pharmaceutical Co., Ltd., priority 2004, dated 2010).
